SMILES strings stand for the structures. Structures can show the parent of a compound that is named as a salt.

The subject of one experiment is endosomal acidification in Vero cells. Put plainly: cells. The experiment is classed as cell-based. The following applies: Chlorocebus sabaeus, Vero, read-out: Percent Inhibition (%) of endosomal acidification. Here is the method:
Inhibition of endosomal acidification was measured using LysoTracker Red DND-99 (ThermoFisher). […] Data were plotted using Prism 9 (GraphPad).
In the case of `CNCC[C@H](Oc1cccc2ccccc12)c1cccs1` [DULOXETINE HYDROCHLORIDE], the inhibition at 40 µM is 59%.

The same experiment, now with this note: Chlorocebus sabaeus; Vero cells, 40 μM, singlet (n=1); read-out: Percent Inhibition (%) of endosomal acidification.
For `C=CC(C)(O)CCC=C(C)CCC=C(C)C` (mixture of isomers) [NEROLIDOL], the inhibition at 40 µM was 66%. Same read-out and setting: the value for `CCCCCCCCCc1ccc(O)cc1` [4-NONYLPHENOL] was 79%. On the same count and under the same terms, the figure for `CC(C)c1ccc2c(c1)CC[C@H]1[C@](C)(CN)CCC[C@]21C` [18-AMINOABIETA-8,11,13-TRIENE SULFATE] is 67%.

As to `CC(=O)c1ccc2c(c1)N(CCCN(C)C)c1ccccc1S2` [ACEPROMAZINE MALEATE], the inhibition at 40 µM amounted to 67%. In the case of `CCCCC(CC)CNC(=N)NC(=N)NCCCCCCNC(=N)NC(=N)NCC(CC)CCCC` (stereo not drawn) [ALEXIDINE HYDROCHLORIDE], the inhibition at 40 µM came out at 95%.

As to `Nc1c2ccccc2nc2ccccc12` [AMINACRINE], the inhibition at 40 µM stood at 69%. On the same count and under the same terms, the figure for `CN(C)CCC=C1c2ccccc2CCc2ccccc21` [AMITRIPTYLINE HYDROCHLORIDE] is 53%; for `CCOC(=O)C1=C(COCCN)NC(C)=C(C(=O)OC)C1c1ccccc1Cl` (stereo not drawn) [AMLODIPINE BESYLATE] it is 76%; for `C[C@@H]1[C@H](O)[C@@H](C)/C=C/C=C/C=C/C=C/C=C/C=C/C=C/[C@H](O[C@@H]2O[C@H](C)[C@@H](O)[C@H](N)[C@@H]2O)C[C@@H]2O[C@](O)(C[C@@H](O)C[C@@H](O)[C@H](O)CC[C@@H](O)C[C@@H](O)CC(=O)O[C@H]1C)C[C@H](O)[C@H]2C(=O)O` [AMPHOTERICIN B] it is 60%. On to `COc1cc(NS(C)(=O)=O)ccc1Nc1c2ccccc2nc2ccccc12` [AMSACRINE], for which the inhibition at 40 µM worked out at 87%.

With `CC(=O)O[C@@H]1CC[C@@]2(C)[C@@H](CC[C@@H]3[C@@H]2CC[C@]2(C)C(=O)CC[C@@H]32)C1` [AN[…]], the inhibition at 40 µM was found to be 50%. Same read-out and setting: the value for `C[C@@H](O[C@H]1OCCN(Cc2n[nH]c(=O)[nH]2)[C@H]1c1ccc(F)cc1)c1cc(C(F)(F)F)cc(C(F)(F)F)c1` [APREPITANT] was 62%. On the same count and under the same terms, the value for `CCCCC/C=C\C/C=C\C/C=C\C/C=C\CCCC(=O)O` [ARACHIDONIC ACID] was 64%; that for `COc1ccc(CCN2CCC(Nc3nc4ccccc4n3Cc3ccc(F)cc3)CC2)cc1` [ASTEMIZOLE] was 50%. With `CN1CCCC(n2nc(Cc3ccc(Cl)cc3)c3ccccc3c2=O)CC1` (stereo not drawn) [AZELASTINE HYDROCHLORIDE], the inhibition at 40 µM amounted to 59%. The same measure, in the same setting: the value for `Cc1c(-c2ccc(O)cc2)n(Cc2ccc(OCCN3CCCCCC3)cc2)c2ccc(O)cc12` [BAZEDOXIFENE ACETATE] was 89%; that for `CCOC(=O)[C@H](CCc1ccccc1)N[C@H]1CCc2ccccc2N(CC(=O)O)C1=O` [BENAZEPRIL HYDROCHLORIDE] was 64%.

For `CN1[C@@H]2CC[C@H]1C[C@@H](OC(c1ccccc1)c1ccccc1)C2` [BENZTROPINE MESYLATE], the inhibition at 40 µM was determined as 50%. Still for that read-out and setting: the value for `CN(C)CCCOc1nn(Cc2ccccc2)c2ccccc12` [BENZYDAMINE HYDROCHLORIDE] was 58%; that for `CC(C)COCC(CN(Cc1ccccc1)c1ccccc1)N1CCCC1` (stereo not drawn) [BEPRIDIL HYDROCHLORIDE] was 71%. Same read-out and setting: the value for `C=C(c1ccc(C(=O)O)cc1)c1cc2c(cc1C)C(C)(C)CCC2(C)C` [BEXAROTENE] was 64%; that for `c1ccc(-c2ccc(C(c3ccccc3)n3ccnc3)cc2)cc1` (stereo not drawn) [BIFONAZOLE] was 50%. The same measure, in the same setting: the figure for `O=C(CCCN1CCC(O)(c2ccc(Br)cc2)CC1)c1ccc(F)cc1` [BROMPERIDOL] is 50%; for `C[C@@]12C(=O)OC(=O)[C@]1(C)[C@H]1CC[C@@H]2O1` [CANTHARIDIN] it is 65%; for `CC(C)NCC(O)COc1cccc2[nH]c3ccccc3c12` (stereo not drawn) [CARAZOLOL] it is 54%. Regarding `COc1ccccc1OCCNCC(O)COc1cccc2[nH]c3ccccc3c12` (stereo not drawn) [CARVEDILOL], the inhibition at 40 µM worked out at 55%. Same read-out and setting: the figure for `CC1=C(O)C(=O)C=C2C1=CC=C1[C@@]2(C)CC[C@@]2(C)[C@@H]3C[C@](C)(C(=O)O)CC[C@]3(C)CC[C@]12C` [CELASTROL] is 92%; for `CCCCCCCCCCCCCCCC[N+](C)(C)C` [CETRIMONIUM BROMIDE] it is 79%; for `COc1cc(-c2ccc(/N=N/c3ccc4c(S(=O)(=O)O)cc(S(=O)(=O)O)c(N)c4c3O)c(OC)c2)ccc1/N=N/c1ccc2c(S(=O)(=O)O)cc(S(=O)(=O)O)c(N)c2c1O` [CHICAGO SKY BLUE] it is 54%. Still for that read-out and setting: the value for `CN(C)CCCN1c2ccccc2Sc2ccc(Cl)cc21` [CHLORPROMAZINE] was 65%; that for `CN(C)CC/C=C1/c2ccccc2Sc2ccc(Cl)cc21` [CHLORPROTHIXENE HYDROCHLORIDE] was 57%; that for `C[C@@H](NCCCc1cccc(C(F)(F)F)c1)c1cccc2ccccc12` [CINACALCET HYDROCHLORIDE] was 91%.

Regarding `CC(C)/N=c1\cc2n(-c3ccc(Cl)cc3)c3ccccc3nc-2cc1Nc1ccc(Cl)cc1` [CLOFAZIMINE], the inhibition at 40 µM amounted to 80%.

Consider `CCN(CC)CCOc1ccc(C(=C(Cl)c2ccccc2)c2ccccc2)cc1` [CLOMIPHENE CITRATE], for which the inhibition at 40 µM amounted to 69%.

`CN(C)CCCN1c2ccccc2CCc2ccc(Cl)cc21` [CLOMIPRAMINE HYDROCHLORIDE]: the inhibition at 40 µM is 83%.

`Cc1cc(C(C#N)c2ccc(Cl)cc2)c(Cl)cc1NC(=O)c1cc(I)cc(I)c1O` (stereo not drawn) [CLOSANTEL]: the inhibition at 40 µM stood at 56%.

With `CC1CC(OC(=O)C(O)c2ccccc2)CC(C)(C)C1` (stereo not drawn) [CYCLANDELATE], the inhibition at 40 µM was 52%.

In the case of `CN1CCC(=C2c3ccccc3C=Cc3ccccc32)CC1` [CYPROHEPTADINE HYDROCHLORIDE], the inhibition at 40 µM is 67%.

For `CCCCCCCCCCCCCCCC[N+](C)(C)Cc1ccccc1` [C[…]], the inhibition at 40 µM is 90%. For the compound `C=CC(C1=CC(=O)C=CC1=O)c1ccccc1` (stereo not drawn) [DALBERGIONE], the inhibition at 40 µM was 85%. Same read-out and setting: the figure for `CN(C)[C@@H](CCOc1cccc2ccccc12)c1ccccc1` [DAPOXETINE HYDROCHLORIDE] is 91%; for `CNCCCN1c2ccccc2CCc2ccccc21` [DESIPRAMINE HYDROCHLORIDE] it is 50%; for `Oc1ccc(Cl)cc1Cc1cc(Cl)ccc1O` [DICHLOROPHEN] it is 86%.

For the compound `C[C@@H]1CC[C@@]2(OC1)O[C@H]1[C@@H](O)[C@H]3[C@@H]4CC[C@H]5C[C@@H](O[C@@H]6O[C@H](CO)[C@H](O[C@@H]7O[C@H](CO)[C@@H](O)[C@H](O[C@@H]8OC[C@@H](O)[C@H](O)[C@H]8O)[C@H]7O[C@@H]7O[C@H](CO)[C@H](O)[C@H](O[C@@H]8O[C@H](CO)[C@@H](O)[C@H](O)[C@H]8O)[C@H]7O)[C@H](O)[C@H]6O)[C@H](O)C[C@]5(C)[C@H]4CC[C@]3(C)[C@H]1[C@@H]2C` [DIGITONIN], the inhibition at 40 µM turned out to be 79%. On the same count and under the same terms, the value for `Cc1c(O)c(O)cc2c1CC=C1[C@@]2(C)CC[C@@]2(C)[C@@H]3C[C@](C)(C(=O)O)CC[C@]3(C)CC[C@]12C` [DIHYDROCELASTROL] was 96%; that for `O=C(Nc1ccccc1)OCC(CN1CCCCC1)OC(=O)Nc1ccccc1` (stereo not drawn) [DIPERODON HYDROCHLORIDE] was 54%; that for `CCN(CC)CCOC(=O)C(c1ccccc1)C1CCCCC1` (stereo not drawn) [DROFENINE HYDROCHLORIDE] was 58%. On the same count and under the same terms, the value for `CCCCc1oc2ccc(NS(C)(=O)=O)cc2c1C(=O)c1ccc(OCCCN(CCCC)CCCC)cc1` [DRONEDARONE HYDROCHLORIDE] was 85%; that for `Clc1ccc(COC(Cn2ccnc2)c2ccc(Cl)cc2Cl)cc1` (stereo not drawn) [ECONAZOLE NITRATE] was 76%. The same measure, in the same setting: the value for `CCN(CC)C(C)CN1c2ccccc2Sc2ccccc21` (stereo not drawn) [ETHOPROPAZINE HYDROCHLORIDE] was 70%; that for `CC(C)=CCC/C(C)=C/CC/C(C)=C/CO` [FARNESOL] was 76%. As to `CC(NCCC(c1ccccc1)c1ccccc1)c1ccccc1` (stereo not drawn) [FENDILINE HYDROCHLORIDE], the inhibition at 40 µM stood at 73%.

As for `CNCCC(Oc1ccc(C(F)(F)F)cc1)c1ccccc1` (stereo not drawn) [FLUOXETINE], the inhibition at 40 µM was determined as 67%.

Consider `OCCN1CCN(CCCN2c3ccccc3Sc3ccc(C(F)(F)F)cc32)CC1` [FLUPHENAZINE HYDROCHLORIDE], for which the inhibition at 40 µM worked out at 78%. On the same count and under the same terms, the value for `CC(C)=CCC[C@]1(C)C=Cc2c(O)c3c(c(CC=C(C)C)c2O1)O[C@]12C(=C[C@@H]4C[C@H]1C(C)(C)O[C@@]2(C/C=C(/C)C(=O)O)C4=O)C3=O` [GAMBOGIC ACID] was 90%.

As to `CN(C)c1ccc(C(=C2C=CC(=[N+](C)C)C=C2)c2ccc(N(C)C)cc2)cc1` [GENTIAN VIOLET], the inhibition at 40 µM was found to be 95%.

Take `Cc1cc2c(C(C)C)c(O)c(O)c(C=O)c2c(O)c1-c1c(C)cc2c(C(C)C)c(O)c(O)c(C=O)c2c1O` [GOSSYPOL]: the inhibition at 40 µM amounted to 80%. Still for that read-out and setting: the value for `Cc1ccc(C(C)C)cc2c(C)ccc1-2` [GUAIAZULENE] was 64%; that for `CCCCC(CC)CN1CN(CC(CC)CCCC)CC(C)(N)C1` (stereo not drawn) [HEXETIDINE] was 84%. On the same count and under the same terms, the value for `CCN(CC)CCNc1ccc(CO)c2sc3ccccc3c(=O)c12` [HYCANTHONE] was 69%. The same measure, in the same setting: the figure for `COC1=C(OC)C(=O)C(CCCCCCCCCCO)=C(C)C1=O` [IDEBENONE] is 63%.

Still in this experiment, the particulars now being: Vero cells, 40 μM, singlet (n=1).
On to `CC(=O)c1ccc2c(c1)N(CCCN1CCN(CCO)CC1)c1ccccc1S2.O=C(O)/C=C\C(=O)O.O=C(O)/C=C\C(=O)O` [ACETOPHENAZINE MALEATE], for which the “Percent Inhibition (%) of endosomal acidification” value came out at 62%.

In the case of `C[n+]1c2cc(N)ccc2cc2ccc(N)cc21.[Cl-]` [ACRIFLAVINIUM HYDROCHLORIDE], the “Percent Inhibition (%) of endosomal acidification” value was 51%. The same measure, in the same setting: the figure for `CCCCCCc1ccc(O)cc1O.Nc1c2ccccc2nc2ccccc12` [ACRISORCIN] is 50%; for `CCCCCCCCCCCCCCCCC(C(=O)O)C(O)(CC(=O)O)C(=O)O` (stereo not drawn) [AGARIC ACID] it is 89%.

Source of the values: publication PMC9295568, “Dual Inhibition of Vacuolar-ATPase and TMPRSS2 Is Required for Complete Blockade of SARS-CoV-2 Entry into Cells” (Antimicrobial Agents and Chemotherapy, 2022).
